pKi: −log10 of the molar value. Entries after “also recorded” stand apart in the source; their conditions may differ. Where two headings read alike, the source gives them in different places.

By pKi is commonly meant the Ki on a negative log10 scale, so that one unit is a factor of ten. As a reminder, the inhibition is the relative decrease from the control value, in per cent.

Data set [1] deals with T1, Pyruvate decarboxylase from Saccharomyces cerevisiae (Saccharomyces cerevisiae, UniProt P06169).
T1 construct: made in house; host or cells: E. coli
T1 sequence (P06169 2-563 limits assumed): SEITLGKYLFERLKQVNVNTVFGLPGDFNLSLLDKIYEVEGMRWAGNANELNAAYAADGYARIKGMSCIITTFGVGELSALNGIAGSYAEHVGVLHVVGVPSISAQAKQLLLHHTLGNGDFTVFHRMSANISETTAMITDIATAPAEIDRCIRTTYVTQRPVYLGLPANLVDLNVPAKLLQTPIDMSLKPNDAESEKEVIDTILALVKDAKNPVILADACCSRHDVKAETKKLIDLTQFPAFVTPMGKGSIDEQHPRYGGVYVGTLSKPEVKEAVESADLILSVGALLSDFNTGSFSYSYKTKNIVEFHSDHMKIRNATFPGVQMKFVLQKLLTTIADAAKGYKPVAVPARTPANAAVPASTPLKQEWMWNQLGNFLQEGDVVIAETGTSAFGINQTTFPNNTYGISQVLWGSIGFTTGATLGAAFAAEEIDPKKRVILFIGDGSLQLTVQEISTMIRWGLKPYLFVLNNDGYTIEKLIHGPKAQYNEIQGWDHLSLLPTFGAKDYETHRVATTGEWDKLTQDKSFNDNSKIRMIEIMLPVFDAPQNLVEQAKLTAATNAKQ
The data set is described as follows: Inactivation of pyruvate decarboxylase (PDC). In kind it is biochemical. As to the method:
Pyruvate decarboxylase from Saccharomyces cerevisiae was overexpressed in E. coli (Baburina et al., 1994), then purified according to Farrenkopf & Jordan (1992). It was assayed spectrophotometrically by coupling to alcohol dehydrogenase (Holzer et al., 1960).

A short description of data set [2]: Chemical stability of inhibitor on incubation in buffer before inactivation test. In kind it is physicochemical. The conditions noted are these: 1 mM, room temperature, 20 mM KH2PO4 pH 7.5, 1 mM ThDP, 5 mM MgCl2, up to 28 min. As to the method: Kinetics of inactivation of 1-lip and 3-lip PDH complexes and resolved E1 in the presence of 2-oxo-3-alkynoic acids. Three analogs of pyruvate were tested as potential inhibitors of the PDHc and resolved E1: 2-oxo-3-butynoic acid; 2-oxo-3-pentynoic acid; and 2-oxo-3-heptynoic acid. Incubation in the presence of saturating ThDP (1 mM) and MgCl2 (5 mM) with any of the three compounds led to the loss of overall activity in a time- and concentration-dependent fashion. The plots of remaining activity versus time were biphasic: a rapid phase of inactivation was followed either by a slow phase at high concentrations of inhibitor or a plateau at low concentrations of inhibitor, as shown for 1-lip PDHc and resolved E1 with 2-oxo-3-butynoic acid in FIGS. 1A and 1B. The biphasic kinetics may be due to chemical instability of the inhibitors, especially 2-oxo-3-butynoic acid. […] When a fresh portion of 2-oxo-3-butynoicacid was added to PDHc whose activity had plateaued at about 30%, the activity rapidly declined to a new plateau at 6-8% of the original activity. In contrast, the PDHc activity continued to decline at a low rate when fresh 1-lip PDHc was added to the sample that had already declined to 30% (data not shown).

Another data set has as its target T2, E1 (Escherichia coli, UniProt P0AFG8).
T2 construct: made in house; host or cells: resolved from PDHc expressed in E. coli JRG1342
The experiment in a line: Fluorescence measurements on binding to E1. Details: species or system E. coli. As to the method:
Fluorescence measurements on the binding of 2-oxo-3-butynoic acid to E1. The fluorescence spectrum of apo-E1 (enzyme having no activity in the absence of ThDP) was measured using the SLM8100 spectrofluorimeter at 25° C. The excitation wavelength was 295 nm and the emission spectrum, presumably due to tryptophan, was recorded in the 300-450 nm range in a 1 mL or 3 mL quartz cuvette. The concentration of apo-E1 was 0.05-0.175 mg/mL in 20 mM KH2 PO4 buffer, pH 7.5. The excitation and emission monochromator slit widths were 4 nm. The V.3.0 software and KaleidaGraph computer program were used for data processing. The emission maximum for tryptophan (λ=335 nm) was determined by fitting the points from the peak using the KaleidaGraph computer program.

The next data set concerns the target T3, resolved E1 (Escherichia coli, UniProt P0AFG8).
T3 construct: made in house; host or cells: resolved from PDHc expressed in E. coli JRG1342
The data set is described as follows: Inactivation of resolved E1 component (activity after reconstitution with E2-E3 subcomplex). In kind it is biochemical, E. coli. The conditions noted are these: for remaining activity at 3700 µM: 3.7 mM inhibitor; for remaining activity at 500 µM: 15 min, read-out: residual activity of E1; for residual activity of E1: conditions as for fluorescence analysis. Here is the method: Resolution of the E1 component from PDHc. […] PDHc was dialyzed against 50 mM Tris buffer, pH 9.0, containing 0.1 mM benzamidine.HCl, 0.15 M NaCl, 0.1 mM PMSF for 2 h, before applying to a column equilibrated and eluted with the same buffer.
Activity and related measurements on PDHc. The overall enzymatic reaction of the PDH complex was assayed using a Varian DMS 300 spectrophotometer or the Cobas Bio (Roche Diagnostics, Somerville, N.J.) automated centrifugal analyzer, monitoring the pyruvate-dependent reduction of NAD^+ at 340 nm. The reaction medium contained in 1 mL (DMS 300) or 0.25 mL (Cobas-Bio) test volume: 0.1 M Tris-HCl, pH 8.0; 1 mM MgCl2; 2 mM sodium pyruvate; 2.5 mM NAD^+; 0.052-0.2 mM coenzyme A; 0.2 mM ThDP; and 2.6 mM DTT at 27° C. The reaction was initiated either by adding enzyme to a mixture of all other components, or by adding CoA.
One unit of activity is defined as the amount of NADH produced (μmol) per min per mg protein. The activity of resolved E1 was measured after reconstitution with excess E2-E3 subcomplex using the NADH assay for PDHc activity.
Inactivation of 1-lip and 3-lip PDH complexes and resolved E1 component by 2-oxo-3-alkynoic acids. Intact 1-lip or 3-lip PDH complexes (0.050-0.1 mg) or resolved E1 component (0.05-0.09 mg) were incubated in the dark with 5 mM MgCl2, […] of 2-oxo-3-alkynoic acids in 20 mM KH2 PO4 buffer, pH 7.5 at room temperature in a total volume 0.5 mL. The initial activity (100%) was assayed prior to the addition of 2-oxo-3-alkynoic acids. Samples (50 μL) were withdrawn periodically and diluted into 1 mL of assay solution, containing all components necessary for assay of the overall activity. The activity of untreated enzyme was stable during the time of inactivation.

Where [3] appears, read: PDC, catalytic site, read-out: Ki,c.

T3 sequence (P0AFG8 2-887): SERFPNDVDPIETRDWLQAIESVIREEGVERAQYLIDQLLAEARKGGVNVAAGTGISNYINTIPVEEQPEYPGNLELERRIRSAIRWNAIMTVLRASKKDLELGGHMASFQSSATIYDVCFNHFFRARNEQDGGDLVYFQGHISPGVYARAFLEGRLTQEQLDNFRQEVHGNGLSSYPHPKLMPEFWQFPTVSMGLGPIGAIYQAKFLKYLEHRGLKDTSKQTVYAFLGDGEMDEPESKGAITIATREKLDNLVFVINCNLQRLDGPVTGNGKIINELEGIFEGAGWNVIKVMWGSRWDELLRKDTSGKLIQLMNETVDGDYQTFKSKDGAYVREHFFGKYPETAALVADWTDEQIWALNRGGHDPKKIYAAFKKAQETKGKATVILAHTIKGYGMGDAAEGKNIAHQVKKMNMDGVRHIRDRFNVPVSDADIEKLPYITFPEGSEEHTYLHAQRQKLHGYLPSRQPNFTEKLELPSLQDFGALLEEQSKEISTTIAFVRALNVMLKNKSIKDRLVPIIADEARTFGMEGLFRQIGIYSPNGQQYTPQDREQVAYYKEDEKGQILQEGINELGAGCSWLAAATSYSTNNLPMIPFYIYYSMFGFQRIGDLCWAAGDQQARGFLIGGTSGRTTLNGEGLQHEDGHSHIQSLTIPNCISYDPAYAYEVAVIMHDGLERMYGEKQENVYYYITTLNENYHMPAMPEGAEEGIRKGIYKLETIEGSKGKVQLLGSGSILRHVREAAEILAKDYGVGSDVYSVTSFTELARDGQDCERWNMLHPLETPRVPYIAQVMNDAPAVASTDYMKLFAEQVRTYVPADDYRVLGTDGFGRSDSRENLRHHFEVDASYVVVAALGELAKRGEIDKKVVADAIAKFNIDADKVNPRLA
T2 sequence (P0AFG8 2-887): as above

With `CCCC#CC(=O)C(=O)O` [2-oxo-3-heptynoic acid, 2-Oxo-3-heptynoic acid], the “inhibition / inactivation of PDC (in words)” value in data set [1] is “inhibit”. In addition, the saturation by inhibitor entry in data set [1] (PDC) and in data set [1] (PDC (+50 mM pyruvamide)) was “yes” throughout. In addition, the pKi in data set [1] (PDC (+50 mM pyruvamide), read-out: Ki,c) was 4.22; in data set [1] (PDC (+50 mM pyruvamide), read-out: Ki,r), 3.42; in data set [1] (setting [3]) it was 3.35; in data set [1] (PDC, regulatory site, read-out: Ki,r) it was 3.04. Further, the kinact in data set [1] (PDC (+50 mM pyruvamide), read-out: ki (converted)) was 0.00523 s⁻¹; in data set [1] (PDC, read-out: ki (converted)), 0.01 s⁻¹. Further, the kinact/KI in data set [1] (read-out: kc/Ki,c, PDC) is 22.5 M⁻¹ s⁻¹; in data set [1] (read-out: kc/Ki,c, PDC (+50 mM pyruvamide)) it was 87.7 M⁻¹ s⁻¹.
Turning to `C#CC(=O)C(=O)O` [2-oxo-3-butynoic acid, 2-Oxo-3-butynoic acid], the “effect of incubating the inhibitor in buffer on its ability to inactivate 1-lip PDHc” value in data set [2] is “no significant effect”. Further, the entries for the “decrease of fluorescence intensity” value on E1 (0.033 mM inhibitor) and on E1 (0.1 mM inhibitor) were “about 35%” and 66%, respectively. The “decrease of fluorescence intensity of E1 at 335 nm” value on E1 (0.11 mM, E1 0.173 mg/ml, ThDP 0.2 mM, MgCl2 1 mM) is on record as “about 66%”. Besides, on E1 (absence of added ThDP, 0.11 mM), the “first-order rate constant of fluorescence intensity decrease, slow phase” value amounted to 0.042 min⁻¹. Besides, in data set [1], the “inhibition / inactivation of PDC (in words)” value is given as “irreversibly inactivates”. The saturation by inhibitor entry in data set [1] (PDC) was “no”. In addition, the pKi was 2.68 in data set [1] (setting [3]); 2.96 in data set [1] (PDC, read-out: Ki); 5.07 at resolved E1 (dissociation constant for initial reversible complex). For the same compound, the kinact in data set [1] (PDC, read-out: first order rate constant of inactivation (ki) (converted)) was 0.0009 s⁻¹; in data set [1] (PDC, read-out: ki (converted)) it was 0.00141 s⁻¹; on resolved E1 (rate constant at saturating inhibitor, resolved E1, read-out: ki E1 (converted)), 0.0298 s⁻¹. The kinact/KI in data set [1] (read-out: kc/Ki,c, PDC) is 0.667 M⁻¹ s⁻¹; in data set [1] (read-out: ki/Ki, PDC), 0.817 M⁻¹ s⁻¹; at resolved E1 (read-out: ki/Ki E1), 3500 M⁻¹ s⁻¹. For the same compound, on resolved E1, the “residual activity of E1 used for SH titration” value turned out to be 10%. The “k for inactivation of E1” value at resolved E1 (0.11 mM inhibitor) stood at 1.73 min⁻¹. On resolved E1 (0.5 mM inhibitor, 20 min, 1 mM ThDP, 5 mM MgCl2), this compound yielded an inhibition at 500 µM of about 68%. The remaining activity at 3700 µM amounted to 11.5% on resolved E1 (after G-25 chromatography, read-out: residual activity of resolved E1 in the overall reaction (At)) and 16% at resolved E1 (E1 1.5 mg/mL, 0.1 mM ThDP, 1 mM MgCl2, read-out: E1 activity remaining before chromatography). For the same compound, on resolved E1 (5 mM DTT added at At = 30%, after 60 min), the “At after addition of DTT to previously inactivated E1” value is reported as 40%. Also, on resolved E1 (5 mM pyruvate, 1 mM ThDP, 5 mM MgCl2), the “protection of E1 component from modification by pyruvate” value was “completely protected”. Also, at resolved E1 (0.2, 0.5 and 1 M hydroxylamine, neutral pH, 100 min or 15 h), the “reactivation of inactivated E1 by hydroxylamine” value is on record as “failed to restore activity; also recorded: failure to reactivate”. Moreover, the remaining activity at 500 µM was about 30% at resolved E1 (0.5 mM inhibitor, absence of DTT) and 63% at resolved E1 (0.5 mM inhibitor, presence of 5 mM DTT). Besides, on resolved E1 (E1 treated with 3.7 mM inhibitor, At = 11.5%, after G-25), the “Pyruvate:NAD+-oxidoreductase reaction” value came to 0.343 ± 0.023 μmol/min/mg protein. The “residual activity of E1” value at resolved E1 (absence of added ThDP) was 78-90%; on resolved E1 (presence of ThDP) it was 40%. In addition, the “kapp, slow phase of inactivation” value on resolved E1 (resolved E1, 0.11 mM inhibitor) was determined as 0.039 min⁻¹; on resolved E1 (resolved E1, 1.1 mM inhibitor) it was 0.078 min⁻¹.
